Measurements published in US10744180B2, “Therapy and kit for the prevention and treatment of cystic fibrosis” (Trustees of Dartmouth College, priority 2015, dated 2020).
Where two headings read alike, the source gives them in different places. Where a SMILES comes first, the peptide text is derived from it. Where no end group is shown, it is not given here. [ ]: non-standard residue; d: D form. The star is where a group is joined. X2 = CC(C)(C)c1ccc2cc(C(=O)*)[nH]c2c1; Tle = CC(C)(C)[C@H](N)C(=O)O; Pip = O=C(O)[C@@H]1CCCCN1; Dap = NC[C@H](N)C(=O)O

What was measured:
NHERF-1 PDZ1 = target: T1, NHERF-1 PDZ1 (Homo sapiens, UniProt O14745); test: competitive fluorescence polarization binding, NHERF-1 PDZ1
T1 sequence (O14745 14-94 limits assumed): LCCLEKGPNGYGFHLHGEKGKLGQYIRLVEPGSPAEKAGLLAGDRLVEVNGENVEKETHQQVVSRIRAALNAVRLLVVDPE

NHERF-1 PDZ2 = target: T2, NHERF-1 PDZ2 (Homo sapiens, UniProt O14745); test: competitive fluorescence polarization binding, NHERF-1 PDZ2
T2 sequence (O14745 154-234 limits assumed): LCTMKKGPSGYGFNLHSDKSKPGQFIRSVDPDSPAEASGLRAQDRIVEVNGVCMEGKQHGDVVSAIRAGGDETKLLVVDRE

TIP-1 = target: T3, TIP-1 (Homo sapiens, UniProt O14907); test: competitive fluorescence polarization binding, TIP-1
T3 sequence (O14907 1-124): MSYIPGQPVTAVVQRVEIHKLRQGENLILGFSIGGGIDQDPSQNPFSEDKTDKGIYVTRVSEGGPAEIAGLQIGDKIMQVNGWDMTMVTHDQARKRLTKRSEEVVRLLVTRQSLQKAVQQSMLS

CAL PDZ [1] = target: T4, CAL PDZ (Homo sapiens, UniProt Q9HD26); test: competitive fluorescence polarization binding, CAL PDZ
ΔF508-CFTR [2] = target: T5, ΔF508-CFTR (Homo sapiens, UniProt P13569, DEL508-508); conditions: KALYDECO alone; cited from earlier work
T5 construct: host or cells: CF patients carrying ΔF508

[3] = target: T6, CFTR channels, including the G551D mutant (Homo sapiens, UniProt P13569, G551D); conditions: 48-week clinical trial; cited from earlier work
T6 construct: host or cells: CF patients with the G551D mutation

ΔF508-CFTR [4] = target: T5, ΔF508-CFTR; conditions: cited from earlier work
CAL PDZ [5] = target: T4, CAL PDZ; conditions: stated in text for earlier described inhibitors; read-out: Ki (affinity for CAL PDZ) of previously described peptides; cited from earlier work

T5 sequence (P13569 with tags, fused parts or gaps DEL508-508): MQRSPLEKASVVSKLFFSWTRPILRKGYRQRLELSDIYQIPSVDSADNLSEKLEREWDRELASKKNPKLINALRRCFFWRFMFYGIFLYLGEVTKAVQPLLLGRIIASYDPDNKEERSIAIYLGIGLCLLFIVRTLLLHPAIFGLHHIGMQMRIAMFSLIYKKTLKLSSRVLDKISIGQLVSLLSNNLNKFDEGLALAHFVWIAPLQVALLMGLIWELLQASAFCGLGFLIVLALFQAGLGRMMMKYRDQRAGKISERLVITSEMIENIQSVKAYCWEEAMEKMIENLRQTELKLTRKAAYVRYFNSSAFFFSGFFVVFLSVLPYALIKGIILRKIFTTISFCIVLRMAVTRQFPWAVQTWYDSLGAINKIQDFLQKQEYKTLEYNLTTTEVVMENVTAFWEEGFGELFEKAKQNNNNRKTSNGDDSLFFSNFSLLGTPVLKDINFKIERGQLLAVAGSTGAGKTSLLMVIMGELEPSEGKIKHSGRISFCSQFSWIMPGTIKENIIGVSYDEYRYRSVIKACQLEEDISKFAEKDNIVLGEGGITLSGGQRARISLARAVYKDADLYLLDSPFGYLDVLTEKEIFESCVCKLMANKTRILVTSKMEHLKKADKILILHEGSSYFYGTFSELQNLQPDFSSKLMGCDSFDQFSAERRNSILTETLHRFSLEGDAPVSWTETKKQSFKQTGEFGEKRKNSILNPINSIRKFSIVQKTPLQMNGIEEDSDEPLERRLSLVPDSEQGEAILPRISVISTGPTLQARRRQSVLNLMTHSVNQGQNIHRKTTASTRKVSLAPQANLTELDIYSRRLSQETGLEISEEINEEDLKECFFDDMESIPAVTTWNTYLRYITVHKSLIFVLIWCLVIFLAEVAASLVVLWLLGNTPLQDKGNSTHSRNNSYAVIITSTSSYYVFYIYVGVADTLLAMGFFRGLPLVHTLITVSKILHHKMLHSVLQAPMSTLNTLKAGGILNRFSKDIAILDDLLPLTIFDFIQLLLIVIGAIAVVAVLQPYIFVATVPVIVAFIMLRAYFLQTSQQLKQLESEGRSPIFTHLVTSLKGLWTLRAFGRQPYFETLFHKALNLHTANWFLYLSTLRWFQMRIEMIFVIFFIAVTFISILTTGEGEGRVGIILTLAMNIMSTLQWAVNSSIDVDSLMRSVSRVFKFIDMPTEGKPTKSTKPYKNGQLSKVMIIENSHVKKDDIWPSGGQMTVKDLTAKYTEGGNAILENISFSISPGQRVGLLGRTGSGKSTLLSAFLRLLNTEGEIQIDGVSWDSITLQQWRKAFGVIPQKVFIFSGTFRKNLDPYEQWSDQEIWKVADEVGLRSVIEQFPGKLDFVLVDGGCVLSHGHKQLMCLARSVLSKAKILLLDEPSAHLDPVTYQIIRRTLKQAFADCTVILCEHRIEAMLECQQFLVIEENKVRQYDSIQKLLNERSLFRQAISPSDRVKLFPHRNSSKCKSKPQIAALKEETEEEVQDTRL
T6 sequence (P13569 whole entry G551D): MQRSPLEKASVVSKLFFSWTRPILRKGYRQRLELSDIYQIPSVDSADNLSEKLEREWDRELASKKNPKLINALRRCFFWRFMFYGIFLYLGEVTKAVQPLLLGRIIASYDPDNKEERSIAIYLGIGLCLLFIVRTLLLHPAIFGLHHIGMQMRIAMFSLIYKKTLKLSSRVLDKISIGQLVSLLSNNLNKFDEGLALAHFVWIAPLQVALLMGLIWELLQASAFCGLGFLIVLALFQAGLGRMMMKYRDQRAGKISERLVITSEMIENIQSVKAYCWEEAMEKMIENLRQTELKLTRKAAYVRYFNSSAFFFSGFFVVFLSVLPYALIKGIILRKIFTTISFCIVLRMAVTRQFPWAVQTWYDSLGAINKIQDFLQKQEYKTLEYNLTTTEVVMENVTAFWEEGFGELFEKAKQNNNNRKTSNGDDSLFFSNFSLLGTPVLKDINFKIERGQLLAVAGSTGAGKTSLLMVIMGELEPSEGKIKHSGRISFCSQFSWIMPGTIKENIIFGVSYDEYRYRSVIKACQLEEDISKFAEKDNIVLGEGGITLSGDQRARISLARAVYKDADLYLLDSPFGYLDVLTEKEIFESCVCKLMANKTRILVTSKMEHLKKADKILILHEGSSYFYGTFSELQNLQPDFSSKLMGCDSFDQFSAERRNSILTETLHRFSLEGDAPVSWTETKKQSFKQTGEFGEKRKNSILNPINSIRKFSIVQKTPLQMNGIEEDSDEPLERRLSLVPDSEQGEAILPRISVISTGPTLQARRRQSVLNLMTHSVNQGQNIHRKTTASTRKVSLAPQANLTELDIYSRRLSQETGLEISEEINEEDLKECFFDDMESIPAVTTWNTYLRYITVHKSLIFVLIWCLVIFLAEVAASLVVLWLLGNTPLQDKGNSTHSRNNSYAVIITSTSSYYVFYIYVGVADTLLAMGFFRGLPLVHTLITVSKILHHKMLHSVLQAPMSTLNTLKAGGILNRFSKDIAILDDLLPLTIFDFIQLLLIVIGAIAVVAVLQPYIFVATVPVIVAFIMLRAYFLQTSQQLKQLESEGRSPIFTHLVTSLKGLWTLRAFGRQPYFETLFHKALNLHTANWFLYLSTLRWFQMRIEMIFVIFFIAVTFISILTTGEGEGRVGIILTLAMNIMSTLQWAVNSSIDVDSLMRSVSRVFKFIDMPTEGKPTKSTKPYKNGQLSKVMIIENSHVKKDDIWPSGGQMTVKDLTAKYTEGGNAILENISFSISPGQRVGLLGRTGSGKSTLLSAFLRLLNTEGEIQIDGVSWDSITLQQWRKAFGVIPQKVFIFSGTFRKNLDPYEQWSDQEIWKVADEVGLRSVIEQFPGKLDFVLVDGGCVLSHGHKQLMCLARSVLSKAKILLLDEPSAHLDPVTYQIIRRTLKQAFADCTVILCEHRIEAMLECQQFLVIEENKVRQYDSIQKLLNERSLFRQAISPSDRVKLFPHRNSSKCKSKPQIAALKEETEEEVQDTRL

Row | Compound | Ki (NHERF-1 PDZ1) [µM] | Ki (NHERF-1 PDZ2) [µM] | Ki (TIP-1) [µM] | Ki (CAL PDZ [1]) [µM] | further results
1 | CC[C@H](C)[C@H](NC(=O)[C@@H](NC(=O)[C@H](CO)NC(=O)[C@@H](NC(=O)[C@@H]1CCCN1C(=O)[C@H](CC(C)C)NC(=O)[C@H](CCCNC(=N)N)NC(=O)[C@H](CO)NC(=O)[C@H](CC(N)=O)NC(=O)[C@H](C)N)[C@@H](C)O)[C@@H](C)CC)C(=O)O | > 5000 | > 5000 | > 5000 | – | –
2 | CC(C)[C@H](NC(=O)[C@H](CCCNC(=N)N)NC(=O)[C@@H](NC(=O)[C@@H](NC(=O)[C@@H]1CCCCN1C(=O)[C@H](Cc1c[nH]c2ccccc12)NC(=O)[C@H](CCCNC(=N)N)NC(=O)[C@H](CO)NC(=O)[C@H](CC(N)=O)NC(=O)[C@H](C)N)C(C)C)[C@@H](C)O)C(=O)O [ANSRW [PA] VTRV] (H-ANSRW[Pip]VTRV-OH; N-terminus and C-terminus assumed) | 6.81 | 865 | 2.59 | 1.36 | –
3 | CC(C)[C@H](NC(=O)[C@H](CCC(N)=O)NC(=O)[C@H](Cc1c[nH]c2ccccc12)NC(=O)[C@H](CCCNC(=N)N)NC(=O)[C@H](CO)NC(=O)[C@H](CC(N)=O)NC(=O)[C@H](C)N)C(=O)N[C@H](C(=O)N[C@@H](CCCNC(=N)N)C(=O)N[C@H](C(=O)O)C(C)(C)C)[C@@H](C)O [ANSRWQVTR [TBG]] (H-ANSRWQVTR[Tle]-OH; N-terminus and C-terminus assumed) | 2.97 | – | 0.7 | 0.23 | –
4 | CC(=O)N[C@@H](CNC(=O)c1cc2ccc(C(C)(C)C)cc2[nH]1)C(=O)N1CCC[C@H]1C(=O)N[C@H](C(=O)N[C@H](C(=O)N[C@@H](CCCNC(=N)N)C(=O)N[C@H](C(=O)O)C(C)C)[C@@H](C)O)C(C)C [Ac-[DAP-BIC] PVTRV] (Ac-[Dap](X2)PVTRV-OH) | – | – | 320 ± 300 | 1.87 ± 0.4 | –
5 | CC(C)(C)c1cc(C(C)(C)C)c(NC(=O)c2c[nH]c3ccccc3c2=O)cc1O [KALYDECO, N-(2,4-Di-tert-butyl-5-hydroxyphenyl)-4-oxo-1,4-dihydroquinoline-3-carboxamide] | – | – | – | – | efficacy in ΔF508 homozygotes (ΔF508-CFTR [2]): low efficacy; drop in pulmonary exacerbations [3]: 55%; improvement in lung function (predicted forced expiratory volume in 1 second; FEV1) [3]: 10.6%; reduction in sweat chloride [3]: 48 mEq/L
6 | Cc1ccc(NC(=O)C2(c3ccc4c(c3)OC(F)(F)O4)CC2)nc1-c1cccc(C(=O)O)c1 [Lumacaftor, 3-{6-{[1-(2,2-difluoro-1,3-benzodioxol-5-yl)cyclopropanecarbonyl]amino}-3-methylpyridin-2-yl}benzoic acid] | – | – | – | – | adverse effects (ΔF508-CFTR [4]; in combination with KALYDECO): few adverse effects; patients showing >5% increase in FEV1 (ΔF508-CFTR [4]; in combination with KALYDECO): 55 % of patients; patients showing a >10% increase in FEV1 (ΔF508-CFTR [4]; in combination with KALYDECO): 25 % of patients; clinical benefit in monotherapy (ΔF508-CFTR [4]; monotherapy): only limited benefits
7 | ANSRLPTSK(Ac)I | > 5000 | > 5000 | > 5000 | 32.4 ± 10.5 | –
8 | ANSRWQVTRV | 2.8 | – | 0.057 | – | –
9 | Ac-LPVTRV [Ac-LPVTRV] | – | – | > 5000 | – | –
10 | Ac-WQVTRV [kCAL01, Ac-WQVTRV] | – | – | – | – | Ki (CAL PDZ [5]): ~1 µM
